US5198445A, “Composition and use of substituted 3-thio-2-propynenitriles as industrial antimicrobials” (The Dow Chemical Company, priority 1992, dated 1993)
≈ marks a conversion by molar mass, not a printed value. Where two headings read alike, the source gives them in different places.

Legend:
Bacillus subtilis (Bs) = experiment: MIC in nutrient agar, Bacillus subtilis; type: cell-based, Bacillus subtilis ATCC 8473
Experimental: (§1) The minimum inhibitory concentration (MIC) for the compounds listed in Table I is determined for 9 bacteria, using nutrient agar, and 7 yeast and fungi, using malt yeast agar. A one percent solution of the test compound is prepared in a mixture of acetone and water. Nutrient agar is prepared at pH 6.8, representing a neutral medium, and at pH 8.2, representing an alkaline medium. The nutrient agars are prepared by adding 23 g of nutrient agar to one-liter of deionized water. In addition, the alkaline medium is prepared by adjusting a 0.04M solution of N-[tris-(hydroxymethyl)methyl]-glycine buffered deionized water with concentrated sodium hydroxide to a pH of […]. Malt yeast agar is prepared by adding 3 g yeast extract and 45 g malt agar per liter of deionized water. The specific agar is dispensed in 30 ml aliquots into 25×200 mm test tubes, capped and autoclaved for 15 minutes at 115° C. The test tubes containing the agar are cooled in a water bath until the temperature of the agar is 48° C. Then, an appropriate amount of the one percent solution of the test compound is added (except in the controls where no compound is added) to the respective test tubes so that the final concentrations are 500, 250, 100, 50, 25, 10, 5, 2.5, 1.0 and zero parts per million of the test compound in the agar, thus having a known concentration of test compound dispersed therein. The contents of the test tubes are then transferred to respective petri plates. After drying for 24 hours, the petri plates containing nutrient agar are inoculated with bacteria and those containing malt yeast agar are inoculated with yeast and fungi.
(§2) The inoculation with bacteria is accomplished by using the following procedure. Twenty-four hour-cultures of each of the bacteria are prepared by incubating the respective bacteria in tubes containing nutrient broth for 24 hours at 30° C. in a shaker. Dilutions of each of the 24 hour-cultures are made so that nine separate suspensions (one for each of the nine test bacteria) are made, each containing 10^8 colony forming units (CFU) per ml of suspension of a particular bacteria. Aliquots of 0.3 ml of each of the bacterial suspensions are used to fill the individual wells of Steer's Replicator. For each microbial suspension, 0.3 ml was used to fill three wells (i.e., three wells of 0.3 ml each) so that for the nine different bacteria, 27 wells are filled. The Steer's Replicator is then used to inoculate both the neutral and alkaline pH nutrient agar petri plates.
(§3) The inoculated petri plates are incubated at 30° C. for 48 hours and then read to determine if the test compound which is incorporated into the agar prevented growth of the respective bacteria.
(§4) Table II lists the bacteria, yeast and fungi used in the MIC test described above along with their respective American Type Culture Collection (ATCC) identification numbers.
(§5) The following MIC and MEC antimicrobial tests, whose results are shown in Tables XIII-XVII, are performed using the same methods as described hereinabove.

Escherichia coli (Ec) = experiment: MIC in nutrient agar, Escherichia coli; type: cell-based, Escherichia coli ATCC 11229
Experimental: as §1, §2, §3, §4, §5

Proteus vulgaris (Pv) = experiment: MIC in nutrient agar, Proteus vulgaris; type: cell-based, Proteus vulgaris ATCC 881
Experimental: as §1, §2, §3, §4, §5

[1] = test system: Pseudomonas aeruginosa (PRD-10); experiment: MIC in nutrient agar, Pseudomonas aeruginosa PRD-10; type: cell-based, Pseudomonas aeruginosa ATCC 15442
Experimental: as §1, §2, §3, §4, §5

[2] = test system: Salmonella choleraesuis (Sc); experiment: MIC in nutrient agar, Salmonella choleraesuis; type: cell-based, Salmonella choleraesuis ATCC 10708
Experimental: as §1, §2, §3, §4, §5

Aspergillus niger (An) = experiment: MIC in malt yeast agar, Aspergillus niger; type: cell-based, Aspergillus niger ATCC 16404; details: read-out: Minimum Inhibitory Concentration, An
Experimental: as §1
(§6) The inoculation with the yeast and fungi is accomplished as follows. Cultures of yeast and fungi are incubated for seven days on malt yeast agar at 30° C. These cultures are used to prepare suspensions by the following procedure. A suspension of each organism is prepared by adding 10 ml of sterile saline and 10 microliters of octylphenoxy polyethoxy ethanol (TRITON® X-100, a trademark of Rohm & Haas Company) to the agar slant of yeast or fungi. The sterile saline/octylphenoxy polyethoxy ethanol solution is then agitated with a sterile swab to suspend the microorganism grown on the slant. Each resulting suspension is diluted into sterile saline (1 part suspension: 9 parts sterile saline). Aliquots of these dilutions are placed in individual wells of Steer's Replicator and petri plates inoculated as previously described. The petri plates are incubated at 30° C. and read after 48 hours for yeast and 72 hours for fungi.
as §4, §5

[3] = test system: Saccharomyces cerevisiae (Sc); experiment: MIC in malt yeast agar, Saccharomyces cerevisiae; type: cell-based, Saccharomyces cerevisiae ATCC 4105; details: read-out: Minimum Inhibitory Concentration, Sc
Experimental: as §1, §6, §4, §5

[4] = test system: mixture of the bacterial organisms listed in Table II; experiment: Multiple Challenge Test in shampoo formulation; type: cell-based, bacteria listed in Table II; details: 10 challenges
Experimental: Additionally, the ability of the compounds of Table I to serve as preservatives in a variety of formulated industrial, household, and commercial products is tested using a Multiple Challenge Test Protocol. In this test, the formulations include a styrene-butadiene latex, a tape joint, a hand lotion, and a shampoo. The styrene-butadiene latex test formulation used is Latex DL 238A, available from The Dow Chemical Company. The compositions of the tape joint, hand lotion and shampoo test formulations can be found in Tables V-VII.
The formulations are separated into 50 g aliquots and placed in sterile bottles. An appropriate amount of a fresh one percent stock solution of the test compound in acetone-water is added to achieve the desired final concentrations. A small portion of each of the test formulations is streaked onto Tryptic Soy Agar (TSA) petri plates using sterile cotton swabs to ensure that the formulations are sterile. If the formulation is sterile, then it is inoculated with 0.1 ml of a mixture of equal aliquots of the 24 hour cultures of each of the bacterial organisms listed in Table II. The test formulations are then incubated at 30° C. After 24 hours, each sample is streaked onto a TSA petri plate using a sterile swab. All plates are then incubated at 30° C. for 48 hours and then rated for microbial growth using the rating system listed in Table VIII. Samples with a rating of 3 or less are reinoculated as described in the procedure for the first inoculation. Samples with a rating of 4 or greater are not reinoculated but after another 24 hours are restreaked on TSA agar.
The normal interpretation of the results is that a concentration of the antimicrobial being tested is considered to be effective if no ratings greater than a 3 are observed throughout the 10 challenges. The Minimum Effective Concentration (MEC), which is used to compare the activity of the antimicrobial additives in the end-use formulations, is the minimum level that is effective under the conditions of the Multiple Challenge Test.

[5] = Bacillus subtilis, pH 6.8; read-out: Minimum Inhibitory Concentration, Bs
[6] = Bacillus subtilis, pH 8.2, read-out: Minimum Inhibitory Concentration, Bs
[7] = Escherichia coli, pH 6.8; read-out: Minimum Inhibitory Concentration, Ec
[8] = Escherichia coli, pH 8.2, read-out: Minimum Inhibitory Concentration, Ec
[9] = pH 6.8, read-out: Minimum Inhibitory Concentration, Pv
[10] = pH 8.2, read-out: Minimum Inhibitory Concentration, Pv
[11] = Pseudomonas aeruginosa, pH 6.8; read-out: Minimum Inhibitory Concentration, PRD
[12] = Pseudomonas aeruginosa, pH 8.2; read-out: Minimum Inhibitory Concentration, PRD
[13] = Salmonella enterica, CHOLERAESUIS, pH 6.8; read-out: Minimum Inhibitory Concentration, Sc
[14] = Salmonella enterica, CHOLERAESUIS, pH 8.2; read-out: Minimum Inhibitory Concentration, Sc
[15] = Bacillus subtilis, pH 6.8, read-out: Minimum Inhibitory Concentration, Bs
[16] = Bacillus subtilis, pH 8.2; read-out: Minimum Inhibitory Concentration, Bs
[17] = Escherichia coli, pH 8.2; read-out: Minimum Inhibitory Concentration, Ec

SMILES: CCSC#CC#N [B, 3-ethylthio-2-propynenitrile]
- MIC (Bacillus subtilis (Bs); [5]): 25 µg/mL (≈ 225 µM)
- MIC (Bacillus subtilis (Bs); [6]): 25 µg/mL (≈ 225 µM)
- MIC (Escherichia coli (Ec); [7]): 5 µg/mL (≈ 45 µM)
- MIC (Escherichia coli (Ec); [8]): 10 µg/mL (≈ 90 µM)
- MIC (Proteus vulgaris (Pv); [9]): < 1 µg/mL
- MIC (Proteus vulgaris (Pv); [10]): 5 µg/mL (≈ 45 µM)
- MIC [1, 11]: 25 µg/mL (≈ 225 µM)
- MIC [1, 12]: 25 µg/mL (≈ 225 µM)
- MIC [2, 13]: 5 µg/mL (≈ 45 µM)
- MIC [2, 14]: 10 µg/mL (≈ 90 µM)
- MIC (Aspergillus niger (An); malt yeast agar): 2.5 µg/mL (≈ 22.5 µM)
- MIC ([3]; malt yeast agar): < 1 µg/mL
- MEC [4]: 25 ppm

SMILES: N#CC#CSC1CCCC1 [C, 3-cyclopentylthio-2-propynenitrile]
- MIC (Bacillus subtilis (Bs); [15]): 100 µg/mL (≈ 661 µM)
- MIC (Bacillus subtilis (Bs); [16]): 250 µg/mL (≈ 1650 µM)
- MIC (Escherichia coli (Ec); [7]): < 10 µg/mL
- MIC (Escherichia coli (Ec); [17]): < 10 µg/mL
- MIC (Proteus vulgaris (Pv); [9]): < 10 µg/mL
- MIC (Proteus vulgaris (Pv); [10]): < 10 µg/mL
- MIC [1, 11]: 250 µg/mL (≈ 1650 µM)
- MIC [1, 12]: 250 µg/mL (≈ 1650 µM)
- MIC [2, 13]: < 10 µg/mL
- MIC [2, 14]: 25 µg/mL (≈ 165 µM)
- MIC (Aspergillus niger (An); malt yeast agar): 2.5 µg/mL (≈ 16.5 µM)
- MIC [3]: 2.5 µg/mL (≈ 16.5 µM)
- MEC [4]: 100 ppm

SMILES: CSC#CC#N [Compound A, 3-methylthio-2-propynenitrile]
- MIC (Bacillus subtilis (Bs); [5]): 2.5 µg/mL (≈ 25.7 µM)
- MIC (Bacillus subtilis (Bs); [16]): 5 µg/mL (≈ 51.5 µM)
- Minimum Inhibitory Concentration, Bs (Bacillus subtilis (Bs); pH 8.2): 5 ppm
- MIC (Escherichia coli (Ec); [7]): 2.5 µg/mL (≈ 25.7 µM)
- MIC (Escherichia coli (Ec); [17]): 5 µg/mL (≈ 51.5 µM)
- Minimum Inhibitory Concentration, Ec (Escherichia coli (Ec); pH 8.2): 5 ppm
- MIC (Proteus vulgaris (Pv); [9]): < 1 µg/mL
- MIC (Proteus vulgaris (Pv); [10]): 2.5 µg/mL (≈ 25.7 µM)
- MIC [1, 11]: 2.5 µg/mL (≈ 25.7 µM)
- MIC [1, 12]: 5 µg/mL (≈ 51.5 µM)
- Minimum Inhibitory Concentration, PRD ([1]; pH 8.2): 5 ppm
- MIC [2, 13]: 2.5 µg/mL (≈ 25.7 µM)
- MIC [2, 14]: 5 µg/mL (≈ 51.5 µM)
- Minimum Inhibitory Concentration, Sc ([2]; pH 8.2): 5 ppm
- MIC (Aspergillus niger (An); malt yeast agar): 2.5 µg/mL (≈ 25.7 µM)
- MIC ([3]; malt yeast agar): 0.5 µg/mL (≈ 5.15 µM)
- MEC [4]: 10 ppm

SMILES: CSC=C(Cl)C#N [Compound G, 2-chloro-3-(methylthio)-2-propenenitrile]
- MIC (Bacillus subtilis (Bs); [15]): 75 µg/mL (≈ 561 µM)
- MIC (Bacillus subtilis (Bs); [6]): 10 µg/mL (≈ 74.8 µM)
- MIC (Escherichia coli (Ec); Escherichia coli, pH 6.8, read-out: Minimum Inhibitory Concentration, Ec): 50 µg/mL (≈ 374 µM)
- MIC (Escherichia coli (Ec); [8]): 10 µg/mL (≈ 74.8 µM)
- MIC (Proteus vulgaris (Pv); [9]): 50 µg/mL (≈ 374 µM)
- MIC (Proteus vulgaris (Pv); [10]): 5 µg/mL (≈ 37.4 µM)
- MIC ([1]; Pseudomonas aeruginosa, pH 6.8, read-out: Minimum Inhibitory Concentration, PRD): 50 µg/mL (≈ 374 µM)
- MIC ([1]; Pseudomonas aeruginosa, pH 8.2, read-out: Minimum Inhibitory Concentration, PRD): 10 µg/mL (≈ 74.8 µM)
- MIC ([2]; Salmonella enterica, CHOLERAESUIS, pH 6.8, read-out: Minimum Inhibitory Concentration, Sc): 50 µg/mL (≈ 374 µM)
- MIC ([2]; Salmonella enterica, CHOLERAESUIS, pH 8.2, read-out: Minimum Inhibitory Concentration, Sc): 5 µg/mL (≈ 37.4 µM)
- MIC (Aspergillus niger (An)): 50 µg/mL (≈ 374 µM)
- MIC [3]: 100 µg/mL (≈ 748 µM)

SMILES: N#CC#CSc1ccc(Cl)cc1 [D, 3-(4-chlorophenylthio)-2-propynenitrile]
- MIC (Bacillus subtilis (Bs); [5]): < 10 µg/mL
- MIC (Bacillus subtilis (Bs); [16]): 50 µg/mL (≈ 258 µM)
- MIC (Escherichia coli (Ec); [7]): < 10 µg/mL
- MIC (Escherichia coli (Ec); [17]): 50 µg/mL (≈ 258 µM)
- MIC (Proteus vulgaris (Pv); [9]): < 10 µg/mL
- MIC (Proteus vulgaris (Pv); [10]): 50 µg/mL (≈ 258 µM)
- MIC [1, 11]: 25 µg/mL (≈ 129 µM)
- MIC [1, 12]: 100 µg/mL (≈ 516 µM)
- MIC [2, 13]: < 10 µg/mL
- MIC [2, 14]: 50 µg/mL (≈ 258 µM)
- MIC (Aspergillus niger (An); malt yeast agar): < 1 µg/mL
- MIC ([3]; malt yeast agar): < 1 µg/mL
- MEC [4]: 100 ppm
